Test results published in patent US20130131043A1, “PYRAZOLE COMPOUNDS AS JAK INHIBITORS” (priority 2010, published 2013).

What was measured:
[1] = target: T1, JAK2 (Homo sapiens, UniProt O60674); experiment: Kinobeads assay, JAK2 (competition binding in cell lysate, dot blot detection); conditions: mixed Molt4/Ramos lysate
T1 construct: endogenous in cells; host or cells: Molt4 (ATCC CRL-1582) and Ramos (ATCC CRL-1596) cell lysate; mixed Molt4/Ramos lysate 1:2
Description: (§1) The compounds of the present invention as described in the previous examples were tested in a Kinobeads™ assay as described for ZAP-70 (WO-A 2007/137867). Briefly, test compounds (at various concentrations) and the affinity matrix with the immobilized aminopyrido-pyrimidine ligand 24 were added to cell lysate aliquots and allowed to bind to the proteins in the lysate sample. After the incubation time the beads with captured proteins were separated from the lysate. Bound proteins were then eluted and the presence of JAK2 and JAK3 was detected and quantified using specific antibodies in a dot blot procedure and the Odyssey infrared detection system. Dose response curves for individual kinases were generated and IC50 values calculated. Kinobeads™ assays for ZAP-70 (WO-A 2007/137867) and for kinase selectivity profiling (WO-A 2006/134056) have been previously described.
(§2) 5×DP buffer: 250 mM Tris-HCl pH 7.4, 25% Glycerol, 7.5 mM MgCl2, 750 mM NaCl, 5 mM Na3VO4; filter the 5×DP buffer through a 0.22 μm filter and store in aliquots at −80° C. The 5×DP buffer is diluted with H2O to 1×DP buffer containing 1 mM DTT and 25 mM NaF.
(§3) Stock solutions of test compounds were prepared in DMSO. In a 96 well plate 30 μL solution of diluted test compounds at 5 mM in DMSO were prepared. Starting with this solution a 1:3 dilution series (9 steps) was prepared. For control experiments (no test compound) a buffer containing 2% DMSO was used.
(§4) Molt4 cells (ATCC catalogue number CRL-1582) and Ramos cells (ATCC catalogue number CRL-1596) were grown in 1 L Spinner flasks (Integra Biosciences, #182101) in suspension in RPMI 1640 medium (Invitrogen, #21875-034) supplemented with 10% Fetal Bovine Serum (Invitrogen) at a density between 0.15×10^6 and 1.2×10^6 cells/mL. Cells were harvested by centrifugation, washed once with 1×PBS buffer (Invitrogen, #14190-094) and cell pellets were frozen in liquid nitrogen and subsequently stored at −80° C. Cells were homogenized in a Potter S homogenizer in lysis buffer: 50 mM Tris-HCl, 0.8% NP40, 5% glycerol, 150 mM NaCl, 1.5 mM MgCl2, 25 mM NaF, 1 mM sodium vanadate, 1 mM DTT, pH 7.5. One complete EDTA-free tablet (protease inhibitor cocktail, Roche Diagnostics, 1873580) per 25 mL buffer was added. The material was dounced 10 times using a mechanized POTTER S, transferred to 50 mL falcon tubes, incubated for 30 minutes on ice and spun down for 10 minutes at 20,000 g at 4° C. (10,000 rpm in Sorvall SLA600, precooled). The supernatant was transferred to an ultracentrifuge (UZ)-polycarbonate tube (Beckmann, 355654) and spun for 1 hour at 100.000 g at 4° C. (33.500 rpm in Ti50.2, precooled). The supernatant was transferred again to a fresh 50 mL falcon tube, the protein concentration was determined by a Bradford assay (BioRad) and samples containing 50 mg of protein per aliquot were prepared. The samples were immediately used for experiments or frozen in liquid nitrogen and stored frozen at −80° C.
(§5) Cell lysate (approximately 50 mg protein per plate) was thawed in a water bath at room temperature and then stored on ice. To the thawed cell lysate 1×DP 0.8% NP40 buffer containing protease inhibitors (1 tablet for 25 mL buffer; EDTA-free protease inhibitor cocktail; Roche Diagnostics 1873580) was added in order to reach a final protein concentration of 10 mg/mL total protein. The diluted cell lysate was stored on ice. Mixed Molt4/Ramos lysate was prepared by combining one volume of Molt4 lysate and two volumes of Ramos lysate (ratio 1:2).
(§6) Plates were sealed and incubated for 3 hours in a cold room on a plate shaker (Heidolph tiramax 1000) at 750 rpm. Afterwards the plate was washed 3 times with 230 μL washing buffer (1×DP 0.4% NP40). The filter plate was placed on top of a collection plate (Greiner bio-one, PP-microplate 96 well V-shape, 65120) and the beads were then eluted with 20 μL of sample buffer (100 mM Tris, pH 7.4, 4% SDS, 0.00025% bromophenol blue, 20% glycerol, 50 mM DTT). […]

[2] = target: T2, JAK3 (Homo sapiens, UniProt P52333); experiment: Kinobeads assay, JAK3 (competition binding in cell lysate, dot blot detection); conditions: mixed Molt4/Ramos lysate
T2 construct: endogenous in cells; host or cells: Molt4 (ATCC CRL-1582) and Ramos (ATCC CRL-1596) cell lysate; mixed Molt4/Ramos lysate 1:2
T2 sequence (P52333 1-1124): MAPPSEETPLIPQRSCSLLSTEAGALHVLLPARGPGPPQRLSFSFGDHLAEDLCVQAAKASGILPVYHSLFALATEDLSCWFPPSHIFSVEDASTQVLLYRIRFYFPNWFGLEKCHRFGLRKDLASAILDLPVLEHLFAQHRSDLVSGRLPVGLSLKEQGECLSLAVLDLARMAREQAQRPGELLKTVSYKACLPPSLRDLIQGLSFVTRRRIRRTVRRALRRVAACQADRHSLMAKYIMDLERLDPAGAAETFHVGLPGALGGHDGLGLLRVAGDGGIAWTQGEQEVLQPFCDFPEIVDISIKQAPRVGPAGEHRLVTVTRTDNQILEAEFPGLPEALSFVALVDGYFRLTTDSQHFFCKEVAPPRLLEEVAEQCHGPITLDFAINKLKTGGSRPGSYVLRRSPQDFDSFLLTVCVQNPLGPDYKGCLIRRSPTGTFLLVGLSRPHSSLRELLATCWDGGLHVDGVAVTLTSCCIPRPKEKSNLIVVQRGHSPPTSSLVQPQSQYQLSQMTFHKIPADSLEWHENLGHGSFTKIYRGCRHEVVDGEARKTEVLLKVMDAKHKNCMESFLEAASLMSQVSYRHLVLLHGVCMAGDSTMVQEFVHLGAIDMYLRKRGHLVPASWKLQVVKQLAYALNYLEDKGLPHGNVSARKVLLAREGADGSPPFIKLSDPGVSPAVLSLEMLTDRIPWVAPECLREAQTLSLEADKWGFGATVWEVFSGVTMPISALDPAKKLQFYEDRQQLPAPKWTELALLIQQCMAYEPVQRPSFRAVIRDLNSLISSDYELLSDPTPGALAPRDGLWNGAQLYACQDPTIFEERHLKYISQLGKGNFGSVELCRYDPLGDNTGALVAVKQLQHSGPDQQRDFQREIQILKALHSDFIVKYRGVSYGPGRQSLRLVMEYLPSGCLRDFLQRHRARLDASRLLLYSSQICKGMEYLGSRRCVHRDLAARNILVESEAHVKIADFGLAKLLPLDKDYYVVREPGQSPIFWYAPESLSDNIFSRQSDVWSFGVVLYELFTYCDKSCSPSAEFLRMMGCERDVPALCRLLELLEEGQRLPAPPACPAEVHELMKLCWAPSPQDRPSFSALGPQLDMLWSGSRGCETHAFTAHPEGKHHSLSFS
Description: as §1, §2, §3, §4, §5, §6

T1 sequence (O60674 whole entry): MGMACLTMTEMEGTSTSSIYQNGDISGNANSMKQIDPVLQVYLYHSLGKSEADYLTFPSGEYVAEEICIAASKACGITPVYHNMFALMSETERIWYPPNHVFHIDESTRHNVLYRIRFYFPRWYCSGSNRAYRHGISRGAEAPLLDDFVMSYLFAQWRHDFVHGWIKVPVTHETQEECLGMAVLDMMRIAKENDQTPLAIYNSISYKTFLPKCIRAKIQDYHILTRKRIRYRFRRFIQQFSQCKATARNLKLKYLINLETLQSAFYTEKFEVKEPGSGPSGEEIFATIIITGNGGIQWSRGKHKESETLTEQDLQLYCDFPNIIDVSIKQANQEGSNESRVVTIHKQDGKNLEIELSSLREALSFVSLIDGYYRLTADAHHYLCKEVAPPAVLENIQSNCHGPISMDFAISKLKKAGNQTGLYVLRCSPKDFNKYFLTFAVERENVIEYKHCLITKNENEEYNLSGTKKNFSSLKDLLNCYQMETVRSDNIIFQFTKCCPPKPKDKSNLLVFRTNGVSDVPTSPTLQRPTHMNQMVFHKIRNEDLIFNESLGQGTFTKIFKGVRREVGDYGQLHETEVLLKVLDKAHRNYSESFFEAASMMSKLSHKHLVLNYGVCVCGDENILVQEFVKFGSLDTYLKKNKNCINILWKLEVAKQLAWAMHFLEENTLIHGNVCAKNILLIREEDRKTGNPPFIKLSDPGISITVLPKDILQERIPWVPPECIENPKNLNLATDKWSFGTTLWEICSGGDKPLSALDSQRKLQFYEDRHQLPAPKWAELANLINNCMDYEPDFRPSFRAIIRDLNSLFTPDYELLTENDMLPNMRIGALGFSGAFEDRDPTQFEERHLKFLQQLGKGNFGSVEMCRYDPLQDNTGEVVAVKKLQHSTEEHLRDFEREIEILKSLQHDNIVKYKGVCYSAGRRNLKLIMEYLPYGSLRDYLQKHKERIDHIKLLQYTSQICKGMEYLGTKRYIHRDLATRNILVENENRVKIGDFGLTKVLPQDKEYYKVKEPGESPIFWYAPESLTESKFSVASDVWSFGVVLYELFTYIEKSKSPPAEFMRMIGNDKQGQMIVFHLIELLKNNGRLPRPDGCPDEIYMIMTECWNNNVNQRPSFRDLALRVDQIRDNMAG

Structure (SMILES) | IC50 [1] [µM] | IC50 [2] [µM]
C[C@H]1CCCC[C@@H]1n1ncc2cnc(Nc3cnn(CCO)c3)nc21 (racemic) [Example 50, Rac-trans-2-(4-((1-(2-methylcyclohexyl)-1H-pyrazolo[3,4-d]pyrimidin-6-yl)amino)-1H-pyrazol-1-yl)ethanol] | 1 to 10 | < 0.1
CC1CCC(n2ncc3cnc(Nc4cnn(C)c4)nc32)C1 (mixture of isomers) [Example 15, N-(1-Methyl-1H-pyrazol-4-yl)-1-(3-methylcyclopentyl)-1H-pyrazolo[3,4-d]pyrimidin-6-amine] | 1 to 10 | 0.1 to 1
Cn1cc(Nc2ncc3cnn(C4CCCCC4)c3n2)cn1 [Example 8, 1-cyclohexyl-N-(1-methyl-1H-pyrazol-4-yl)-1H-pyrazolo[3,4-d]pyrimidin-6-amine] | > 10 | 0.1 to 1
Cn1cc(Nc2ncc3cnn(CCCNS(C)(=O)=O)c3n2)cn1 [Example 2, N-(3-(6-(1-methyl-1H-pyrazol-4-ylamino)-1H-pyrazolo[3,4-d]pyrimidin-1-yl)propyl)methanesulfonamide] | 1 to 10 | 0.1 to 1
Cn1cc(Nc2ncc3cnn(CC4CN(CCC#N)C4)c3n2)cn1 [Example 49, 3-(3-((6-((1-methyl-1H-pyrazol-4-yl)amino)-1H-pyrazolo[3,4-d]pyrimidin-1-yl)methyl)azetidin-1-yl)propanenitrile] | > 10 | 0.1 to 1
CCC(C1CCCCC1)n1ncc2cnc(Nc3cnn(C)c3)nc21 (stereo not drawn) [Example 18, 1-(1-Cyclohexylpropyl)-N-(1-methyl-M-pyrazol-4-yl)-1H-pyrazolo[3,4-c]pyrimidin-6-amine] | > 10 | 0.1 to 1
C[C@H]1CCCC[C@@H]1n1ncc2cnc(Nc3cnn(C)c3)nc21 (racemic) [Example 7, Rac-trans-N-(1-methyl-1H-pyrazol-4-yl)-1-(2-methylcyclohexyl)-1H-pyrazolo[3,4-d]pyrimidin-6-amine] | 1 to 10 | < 0.1
Cn1cc(Nc2ncc3cnn(CC4CCN(S(=O)(=O)C5CC5)C4)c3n2)cn1 (stereo not drawn) [Example 43, 1-((1-(cyclopropylsulfonyl)pyrrolidin-3-yl)methyl)-N-(1-methyl-1H-pyrazol-4-yl)-1H-pyrazolo[3,4-d]pyrimidin-6-amine] | > 10 | 0.1 to 1

Now from value to molecule:

IC50 [1] [µM] | IC50 [2] [µM] | Structure (SMILES)
> 10 | 0.1 to 1 | CSCCC(=O)N1CCCC(Cn2ncc3cnc(Nc4cnn(CC(F)F)c4)nc32)C1 (stereo not drawn) [Example 56, 1-(3-((6-((1-(2,2-difluoroethyl)-1H-pyrazol-4-yl)amino)-1H-pyrazolo[3,4-d]pyrimidin-1-yl)methyl)piperidin-1-yl)-3-(methylthio)propan-1-one]
> 10 | 0.1 to 1 | CC(C)NC(=O)CN1CCC(Cn2ncc3cnc(Nc4cnn(C)c4)nc32)C1 (stereo not drawn) [Example 68, N-isopropyl-2-(3-((6-((1-methyl-1H-pyrazol-4-yl)amino)-1H-pyrazolo[3,4-d]pyrimidin-1-yl)methyl)pyrrolidin-1-yl)acetamide]
1 to 10 | < 0.1 | Cn1cc(Nc2ncc3cnn(CC4CCCN(CC(F)F)C4)c3n2)cn1 (stereo not drawn) [Example 67, 1-((1-(2,2-difluoroethyl)piperidin-3-yl)methyl)-N-(1-methyl-1H-pyrazol-4-yl)-1H-pyrazolo[3,4-d]pyrimidin-6-amine]
1 to 10 | < 0.1 | Cn1cc(Nc2ncc3cnn(CC4CCN(CCC#N)C4)c3n2)cn1 (stereo not drawn) [Example 53, 3-(3-((6-((1-methyl-1H-pyrazol-4-yl)amino)-1H-pyrazolo[3,4-d]pyrimidin-1-yl)methyl)pyrrolidin-1-yl)propanenitrile]
> 10 | < 0.1 | COCCN1CCCC(Cn2ncc3cnc(Nc4cnn(C)c4)nc32)C1 (stereo not drawn) [Example 35, 1-((1-(2-methoxyethyl)piperidin-3-yl)methyl)-N-(1-methyl-1H-pyrazol-4-yl)-1H-pyrazolo[3,4-d]pyrimidin-6-amine]
1 to 10 | 0.1 to 1 | Cn1cc(Nc2ncc3cnn(CC4CCCNC4)c3n2)cn1 (stereo not drawn) [Example 5, N-(1-methyl-1H-pyrazol-4-yl)-1-(piperidin-3-ylmethyl)-1H-pyrazolo[3,4-d]pyrimidin-6-amine]
1 to 10 | < 0.1 | Cn1cc(Nc2ncc3cnn(CC4CCCN(CCO)C4)c3n2)cn1 (stereo not drawn) [Example 66, 2-(3-((6-((1-methyl-1H-pyrazol-4-yl)amino)-1H-pyrazolo[3,4-d]pyrimidin-1-yl)methyl)piperidin-1-yl)ethanol]
1 to 10 | < 0.1 | Cn1cc(Nc2ncc3cnn(CC4CCCN(C(=O)CC#N)C4)c3n2)cn1 (stereo not drawn) [Example 26, 3-(3-((6-((1-methyl-1H-pyrazol-4-yl)amino)-1H-pyrazolo[3,4-d]pyrimidin-1-yl)methyl)piperidin-1-yl)-3-oxopropanenitrile]
> 10 | 0.1 to 1 | CCOC(=O)N1CCCC(Cn2ncc3cnc(Nc4cnn(C)c4)nc32)C1 (stereo not drawn) [Example 36, ethyl 3-((6-((1-methyl-1H-pyrazol-4-yl)amino)-1H-pyrazolo[3,4-d]pyrimidin-1-yl)methyl)piperidine-1-carboxylate]
1 to 10 | 0.1 to 1 | N#CCN1CCCC(Cn2ncc3cnc(Nc4cnn(CC(F)F)c4)nc32)C1 (stereo not drawn) [Example 60, 2-(3-((6-((1-(2,2-difluoroethyl)-1H-pyrazol-4-yl)amino)-1H-pyrazolo[3,4-d]pyrimidin-1-yl)methyl)piperidin-1-yl)acetonitrile]
